Reference: ChEMBL document CHEMBL2029287, “Synthesis, study on anti-arthritic, anti-inflammatory activity and toxicity of some novel bis-oxy cyclophane diamides” (Bioorg Med Chem Lett, 2012)

Tests used:
[1] = In vitro antiarthritic activity assessed as inhibition of bovine serum albumin denaturation at 50 ug/mL incubated for 20 mins at 37 degC following rise in temperature up to 57 degC for 3 mins by UV-Visible spectrophotometry; type: functional
[2] = In vitro antiarthritic activity assessed as inhibition of bovine serum albumin denaturation at 100 ug/mL incubated for 20 mins at 37 degC following rise in temperature up to 57 degC for 3 mins by UV-Visible spectrophotometry; type: functional
[3] = In vitro antiarthritic activity assessed as inhibition of bovine serum albumin denaturation at 200 ug/mL incubated for 20 mins at 37 degC following rise in temperature up to 57 degC for 3 mins by UV-Visible spectrophotometry; type: functional
[4] = In vitro antiarthritic activity assessed as inhibition of bovine serum albumin denaturation at 400 ug/mL incubated for 20 mins at 37 degC following rise in temperature up to 57 degC for 3 mins by UV-Visible spectrophotometry; type: functional
[5] = In vitro antiarthritic activity assessed as inhibition of bovine serum albumin denaturation at 800 ug/mL incubated for 20 mins at 37 degC following rise in temperature up to 57 degC for 3 mins by UV-Visible spectrophotometry; type: functional
[6] = Antiinflammatory activity in human RBC assessed as membrane stabilization at 10 ug/mL after 30 mins by UV-Visible spectrophotometry; type: functional, Erythrocyte
[7] = Antiinflammatory activity in human RBC assessed as membrane stabilization at 50 ug/mL after 30 mins by UV-Visible spectrophotometry; type: functional, Erythrocyte
[8] = Antiinflammatory activity in human RBC assessed as membrane stabilization at 100 ug/mL after 30 mins by UV-Visible spectrophotometry; type: functional, Erythrocyte
[9] = Antiinflammatory activity in human RBC assessed as membrane stabilization at 200 ug/mL after 30 mins by UV-Visible spectrophotometry; type: functional, Erythrocyte
[10] = In vitro antiarthritic activity assessed as inhibition of bovine serum albumin denaturation incubated for 20 mins at 37 degC following rise in temperature up to 57 degC for 3 mins by UV-Visible spectrophotometry; type: functional
[11] = test system: Erythrocyte; assay: Antiinflammatory activity in human RBC assessed as membrane stabilization after 30 mins by UV-Visible spectrophotometry; type: functional
[12] = test system: Salmonella typhimurium; assay: Mutagenic activity in Salmonella typhimurium TA 98 assessed as increase in revertants at 0.039 to 5 mg/plate after 48 hrs by Ames test relative to control; type: toxicity, organism-based; conditions: salmonella enterica subsp. enterica serovar typhimurium
[13] = test system: Salmonella typhimurium; assay: Mutagenic activity in Salmonella typhimurium TA 98 assessed as increase in revertants at 0.039 to 5 mg/plate after 48 hrs by Ames test in presence of S9 liver fraction relative to control; type: toxicity, organism-based; conditions: salmonella enterica subsp. enterica serovar typhimurium
[14] = test system: Salmonella typhimurium; assay: Mutagenic activity in Salmonella typhimurium TA 100 assessed as increase in revertants at 0.039 to 5 mg/plate after 48 hrs by Ames test relative to control; type: toxicity, organism-based; conditions: salmonella enterica subsp. enterica serovar typhimurium
[15] = test system: Salmonella typhimurium; assay: Mutagenic activity in Salmonella typhimurium TA 100 assessed as increase in revertants at 0.039 to 5 mg/plate after 48 hrs by Ames test in presence of S9 liver fraction relative to control; type: toxicity, organism-based; conditions: salmonella enterica subsp. enterica serovar typhimurium
[16] = test system: Salmonella typhimurium; assay: Mutagenic activity in Salmonella typhimurium TA 98 assessed as increase in revertants at 0.012 to 1.660 mg/plate after 48 hrs by Ames test relative to control; type: toxicity, organism-based; conditions: salmonella enterica subsp. enterica serovar typhimurium
[17] = test system: Salmonella typhimurium; assay: Mutagenic activity in Salmonella typhimurium TA 98 assessed as increase in revertants at 0.012 to 1.660 mg/plate after 48 hrs by Ames test in presence of S9 liver fraction relative to control; type: toxicity, organism-based; conditions: salmonella enterica subsp. enterica serovar typhimurium
[18] = test system: Salmonella typhimurium; assay: Mutagenic activity in Salmonella typhimurium TA 100 assessed as increase in revertants at 0.012 to 1.660 mg/plate after 48 hrs by Ames test relative to control; type: toxicity, organism-based; conditions: salmonella enterica subsp. enterica serovar typhimurium
[19] = test system: Salmonella typhimurium; assay: Mutagenic activity in Salmonella typhimurium TA 100 assessed as increase in revertants at 0.012 to 1.660 mg/plate after 48 hrs by Ames test in presence of S9 liver fraction relative to control; type: toxicity, organism-based; conditions: salmonella enterica subsp. enterica serovar typhimurium

SMILES	inhibition [1]	inhibition [2]	inhibition [3]	inhibition [4]	inhibition [5]	Activity [6]	Activity [7]	Activity [8]	Activity [9]	inhibition [10]	Activity [11]	Ratio [12]	Ratio [13]	Ratio [14]	Ratio [15]	Ratio [16]	Ratio [17]	Ratio [18]	Ratio [19]
O=C(O)Cc1ccccc1Nc1c(Cl)cccc1Cl	5.3%	10.9%	15%	21.3%	76.5%														
O=C1COc2ccc3ccccc3c2-c2c(ccc3ccccc23)OCC(=O)NCc2ccc(cc2)-c2cccc(c2)-c2ccc(cc2)CN1	11.7%	37%	59.7%	69.9%	81.9%	77.3%	86.2%	90.6%	97.7%	Dose-dependent effect	Dose-dependent effect								
C[C@]12C=CC(=O)C=C1CC[C@@H]1[C@@H]2[C@@H](O)C[C@@]2(C)[C@H]1CC[C@]2(O)C(=O)CO [PREDNISOLONE]						46.03%	57.94%	84.87%	91.01%										
O=C1COc2ccccc2-c2ccccc2OCC(=O)NCc2ccc(cc2)-c2cccc(c2)-c2ccc(cc2)CN1	40.5%	61.9%	76.2%	81.4%	98.2%	74.2%	85.65%	93.77%	96.03%	Dose-dependent effect	Dose-dependent effect								
O=C1NCc2ccc(cc2)-c2cccc(c2)-c2ccc(cc2)CNC(=O)c2cccc(c2)OCc2ccc(cc2)-c2cccc(c2)-c2ccc(cc2)COc2cccc1c2	12.6%	25.2%	48.5%	68.6%	78.2%	61.89%	71.74%	82.51%	91.59%	Dose-dependent effect	Dose-dependent effect	<= 2	<= 2	<= 2	<= 2	<= 2	<= 2	<= 2	<= 2
O=C1NCc2ccc(cc2)-c2cccc(c2)-c2ccc(cc2)CNC(=O)c2cccc(c2)OCc2cc(cc([N+](=O)[O-])c2)COc2cccc1c2	23.6%	49.6%	73.1%	82.1%	94.4%	66.71%	75.97%	85.66%	95.5%	Dose-dependent effect	Dose-dependent effect								
